For 23 molecules, EC50 results are on record in patent US11254663B2 (BRISTOL-MYERS SQUIBB COMPANY, priority 2019, dated 2022).

One experiment deals with T1, FXR (Homo sapiens (Human), UniProt Q96RI1). The experiment in a line: FXR EC50 (FXR agonist potency reported with each Example). It is filed as cell-based.
T1 sequence (Q96RI1 262-486): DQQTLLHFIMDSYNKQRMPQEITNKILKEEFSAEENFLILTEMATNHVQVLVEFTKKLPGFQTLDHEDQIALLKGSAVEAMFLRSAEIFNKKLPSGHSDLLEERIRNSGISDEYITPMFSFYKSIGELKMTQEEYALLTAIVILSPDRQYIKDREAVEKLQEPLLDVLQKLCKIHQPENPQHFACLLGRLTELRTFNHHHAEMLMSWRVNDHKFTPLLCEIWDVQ
Details: not given
With `O=C(C1CCC(F)(F)C1)N(CC12CCC(c3nnc(C4CC4)o3)(CC1)CC2)c1cccc(-c2nnc(C3CC3)o2)c1` (racemic) [Example 133, N-((4-(5-cyclopropyl-1,3,4-oxadiazol-2-yl)bicyclo[2.2.2]octan-1-yl)methyl)-N-(3-(5-cyclopropyl-1,3,4-oxadiazol-2-yl)phenyl)-3,3-difluorocyclopentane-1-carboxamide], the EC50 was found to be 0.293 µM.

`CC(N(C(=O)C12CC(F)(C1)C2)c1cccc(-c2cnc(C3CC3)o2)c1)C12CCC(c3nc(C4CC4)no3)(CC1)CC2` (single isomer, unassigned) [Example 215, N-(1-(4-(3-cyclopropyl-1,2,4-oxadiazol-5-yl)bicyclo[2.2.2]octan-1-yl)ethyl)-N-(3-(2-cyclopropyloxazol-5-yl)phenyl)-3-fluorobicyclo[1.1.1]pentane-1-carboxamide] returned an EC50 of 0.269 µM.

Regarding `CC(N(C(=O)C12CC(F)(C1)C2)c1cccc(-c2cnc(C3CC3)o2)c1)C12CCC(c3nc(C4CC4)no3)(CC1)CC2` (single isomer, unassigned) [Example 216, N-(1-(4-(3-cyclopropyl-1,2,4-oxadiazol-5-yl)bicyclo[2.2.2]octan-1-yl)ethyl)-N-(3-(2-cyclopropyloxazol-5-yl)phenyl)-3-fluorobicyclo[1.1.1]pentane-1-carboxamide], the EC50 amounted to 0.511 µM.

As for `CC(N(C(=O)C12CC(F)(C1)C2)c1cccc(-c2nc(C3CC3)no2)c1)C12CCC(c3nc(C4CC4)no3)(CC1)CC2` (single isomer, unassigned) [Example 217, N-(1-(4-(3-cyclopropyl-1,2,4-oxadiazol-5-yl)bicyclo[2.2.2]octan-1-yl)ethyl)-N-(3-(3-cyclopropyl-1,2,4-oxadiazol-5-yl)phenyl)-3-fluorobicyclo[1.1.1]pentane-1-carboxamide], the EC50 amounted to 1.44 µM. Against the preceding molecule, the EC50 is about 2.8-fold higher.

In the case of `CC(N(C(=O)C12CC(F)(C1)C2)c1cccc(-c2nc(C3CC3)no2)c1)C12CCC(c3nc(C4CC4)no3)(CC1)CC2` (single isomer, unassigned) [Example 218, N-(1-(4-(3-cyclopropyl-1,2,4-oxadiazol-5-yl)bicyclo[2.2.2]octan-1-yl)ethyl)-N-(3-(3-cyclopropyl-1,2,4-oxadiazol-5-yl)phenyl)-3-fluorobicyclo[1.1.1]pentane-1-carboxamide], the EC50 stood at 1.12 µM.

`Cc1noc(-c2cccc(N(CC34CCC(c5ccc(C6CC6)cc5)(CC3)CC4)C(=O)C(C)C)c2)n1` [Example 1, N-((4-(4-cyclopropylphenyl)bicyclo[2.2.2]octan-1-yl)methyl)-N-(3-(3-methyl-1,2,4-oxadiazol-5-yl)phenyl)isobutyramide] came in with an EC50 of 1.83 µM.

On to `Cc1noc(-c2cccc(N(CC34CCC(c5ccc(C6CC6)cc5)(CC3)CC4)C(=O)C3CC3)c2)n1` [Example 2, N-((4-(4-cyclopropylphenyl)bicyclo[2.2.2]octan-1-yl)methyl)-N-(3-(3-methyl-1,2,4-oxadiazol-5-yl)phenyl)cyclopropanecarboxamide], for which the midpoint of the response, the EC50, lay at 3.06 µM.

`CCc1noc(-c2cccc(N(CC34CCC(c5nc(C)no5)(CC3)CC4)C(=O)C34CC(F)(C3)C4)c2)n1` [Example 3, N-(3-(3-ethyl-1,2,4-oxadiazol-5-yl)phenyl)-3-fluoro-N-((4-(3-methyl-1,2,4-oxadiazol-5-yl)bicyclo[2.2.2]octan-1-yl)methyl)bicyclo[1.1.1]pentane-1-carboxamide] showed an EC50 of 0.346 µM.

`CCc1noc(-c2cccc(N(CC34CCC(c5nc(C6CC6)no5)(CC3)CC4)C(=O)C3CC(C(F)F)C3)c2)n1` (centres unmarked) [Example 4, N-((4-(3-cyclopropyl-1,2,4-oxadiazol-5-yl)bicyclo[2.2.2]octan-1-yl)methyl)-3-(difluoromethyl)-N-(3-(3-ethyl-1,2,4-oxadiazol-5-yl)phenyl)cyclobutane-1-carboxamide] returned an EC50 of 0.322 µM.

Take `CCc1noc(-c2cccc(N(CC34CCC(c5nc(C6CC6)no5)(CC3)CC4)C(=O)[C@H]3C[C@](O)(C(F)(F)F)C3)c2)n1` [Example 5, (1s, 3s)-N-((4-(3-cyclopropyl-1,2,4-oxadiazol-5-yl)bicyclo[2.2.2]octan-1-yl)methyl)-N-(3-(3-ethyl-1,2,4-oxadiazol-5-yl)phenyl)-3-hydroxy-3-(trifluoromethyl)cyclobutane-1-carboxamide]: the EC50 worked out at 0.182 µM.

Regarding `CCc1noc(-c2cccc(N(CC34CCC(c5nc(C6CC6)no5)(CC3)CC4)C(=O)C34CC(F)(C3)C4)c2)n1` [Example 6, N-((4-(3-cyclopropyl-1,2,4-oxadiazol-5-yl)bicyclo[2.2.2]octan-1-yl)methyl)-N-(3-(3-ethyl-1,2,4-oxadiazol-5-yl)phenyl)-3-fluorobicyclo[1.1.1]pentane-1-carboxamide], the EC50 came to 0.135 µM.

In turn, `CCOc1ncc(-c2cccc(N(CC34CCC(c5nc(C6CC6)no5)(CC3)CC4)C(=O)C34CC(F)(C3)C4)c2)o1` [Example 7, N-((4-(3-cyclopropyl-1,2,4-oxadiazol-5-yl)bicyclo[2.2.2]octan-1-yl)methyl)-N-(3-(2-ethoxyoxazol-5-yl)phenyl)-3-fluorobicyclo[1.1.1]pentane-1-carboxamide] came in with an EC50 of 0.022 µM.

Turning to `O=C([C@H]1C[C@](O)(C(F)(F)F)C1)N(CC12CCC(c3nc(C4CC4)no3)(CC1)CC2)c1cccc(-c2nc(C3CC3)no2)c1` [Example 9, (1s, 3s)-N-((4-(3-cyclopropyl-1,2,4-oxadiazol-5-yl)bicyclo[2.2.2]octan-1-yl)methyl)-N-(3-(3-cyclopropyl-1,2,4-oxadiazol-5-yl)phenyl)-3-hydroxy-3-(trifluoromethyl)cyclobutane-1-carboxamide], the midpoint of the response, the EC50, lay at 0.153 µM.

Molecule `O=C(C1CCC(F)(F)C1)N(CC12CCC(c3nc(C4CC4)no3)(CC1)CC2)c1cccc(-c2nc(C3CC3)no2)c1` (centres unmarked) [Example 11, N-((4-(3-cyclopropyl-1,2,4-oxadiazol-5-yl)bicyclo[2.2.2]octan-1-yl)methyl)-N-(3-(3-cyclopropyl-1,2,4-oxadiazol-5-yl)phenyl)-3,3-difluorocyclopentane-1-carboxamide] came in with an EC50 of 0.282 µM.

In turn, `CCOC(=O)c1coc(-c2cccc(N(CC34CCC(c5nc(C)no5)(CC3)CC4)C(=O)C34CC(F)(C3)C4)c2)n1` [Example 12, Ethyl 2-(3-(3-fluoro-N-((4-(3-methyl-1,2,4-oxadiazol-5-yl)bicyclo[2.2.2]octan-1-yl)methyl)bicyclo[1.1.1]pentane-1-carboxamido)phenyl)oxazole-4-carboxylate] displayed an EC50 of 1.71 µM. This EC50 is about 6.1-fold higher than that of the molecule before.

Molecule `CCOC(=O)c1coc(-c2cccc(N(CC34CCC(c5nc(C6CC6)no5)(CC3)CC4)C(=O)C34CC(F)(C3)C4)c2)n1` [Example 13, Ethyl 2-(3-(N-((4-(3-cyclopropyl-1,2,4-oxadiazol-5-yl)bicyclo[2.2.2]octan-1-yl)methyl)-3-fluorobicyclo[1.1.1]pentane-1-carboxamido)phenyl)oxazole-4-carboxylate] had a 50% effective concentration (EC50) of 0.512 µM.

`O=C(N(CC12CCC(c3nc(C4CC4)no3)(CC1)CC2)c1cccc(-c2nc(CCl)co2)c1)C12CC(F)(C1)C2` [Example 14, N-(3-(4-(chloromethyl)oxazol-2-yl)phenyl)-N-((4-(3-cyclopropyl-1,2,4-oxadiazol-5-yl)bicyclo[2.2.2]octan-1-yl)methyl)-3-fluorobicyclo[1.1.1]pentane-1-carboxamide] gave an EC50 of 0.166 µM.

Molecule `CC(C)(O)c1coc(-c2cccc(N(CC34CCC(c5nc(C6CC6)no5)(CC3)CC4)C(=O)C34CC(F)(C3)C4)c2)n1` [Example 15, N-((4-(3-cyclopropyl-1,2,4-oxadiazol-5-yl)bicyclo[2.2.2]octan-1-yl)methyl)-3-fluoro-N-(3-(4-(2-hydroxypropan-2-yl)oxazol-2-yl)phenyl)bicyclo[1.1.1]pentane-1-carboxamide] showed an EC50 of 0.088 µM.

Another experiment concerns the target T1, FXR. The experiment in a line: transient human FXR/Gal4-luciferase reporter assay. It counts as cell-based. The following applies: Gal4-hFXR fusion construct, HEK293 reporter cells; response relative to 8 μM GW-4064. Put shortly:
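Compound exposure ran overnight at 37 °C and activity was measured as luminescence with Steady-Glo reagent. The cells were a HEK293 line stably expressing firefly luciferase under five Gal4 response elements. They were transiently transfected, one night beforehand, with a plasmid encoding Gal4 DNA-binding domain fused to the human FXR ligand-binding domain.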
(In a reporter assay the amount or activity of a reporter protein is the signal.)
For the molecule `CC(C)(O)CN1CC=C(c2cccc(N(CC34CCC(c5noc(C(C)(C)F)n5)(CC3)CC4)C(=O)C34CC(F)(C3)C4)c2)CC1` [Example 663, 3-fluoro-N-((4-(5-(2-fluoropropan-2-yl)-1,2,4-oxadiazol-3-yl)bicyclo[2.2.2]octan-1-yl)methyl)-N-(3-(1-(2-hydroxy-2-methylpropyl)-1,2,3,6-tetrahydropyridin-4-yl)phenyl) bicyclo[1.1.1]pentane-1-carboxamide], the EC50 amounted to 0.159 µM.

As for `CC(C)(O)c1ccc(-c2cccc(N(CC34CCC(c5noc(C(C)(C)F)n5)(CC3)CC4)C(=O)N[C@H]3C[C@]4(C[C@@H](O)C4)C3)c2)cc1` (stereo partly drawn) [Example 664, 1-((4-(5-(2-fluoropropan-2-yl)-1,2,4-oxadiazol-3-yl)bicyclo[2.2.2]octan-1-yl)methyl)-1-(4′-(2-hydroxypropan-2-yl)-[1,1′-biphenyl]-3-yl)-3-((2S,4S,6S)-6-hydroxyspiro[3.3]heptan-2-yl)urea], the response was half-maximal at 0.047 µM (EC50).

On to `CC(C)(OC(=O)N(CC12CCC(c3nc(C4CC4)no3)(CC1)CC2)c1nccc(C23CCC(C#N)(CC2)CC3)n1)C(F)(F)F` [Example 665, 1,1,1-trifluoro-2-methylpropan-2-yl (4-(4-cyanobicyclo[2.2.2]octan-1-yl)pyrimidin-2-yl)((4-(3-cyclopropyl-1,2,4-oxadiazol-5-yl)bicyclo[2.2.2]octan-1-yl)methyl)carbamate], for which the EC50 stood at 2 µM.

`CC(C)(O)C12CCC(c3ccnc(N(CC45CCC(c6nc(C7CC7)no6)(CC4)CC5)C(=O)OC(C)(C)C(F)(F)F)n3)(CC1)CC2` [Example 666, 1,1,1-trifluoro-2-methylpropan-2-yl ((4-(3-cyclopropyl-1,2,4-oxadiazol-5-yl)bicyclo[2.2.2]octan-1-yl)methyl)(4-(4-(2-hydroxypropan-2-yl)bicyclo[2.2.2]octan-1-yl)pyrimidin-2-yl)carbamate] showed an EC50 of 0.496 µM.

On to “N-((4-(3-cyclopropyl-1,2,4-oxadiazol-5-yl)bicyclo[2.2.2]octan-1-yl)methyl)-3-fluoro-N-(3-morpholinophenyl)bicyclo[1.1.1]pentane-1-carboxamide [Example 417]”, for which the midpoint of the response, the EC50, lay at 0.207 µM.

As a reminder, the EC50 is the concentration at which the effect is half-maximal. A lower EC50 goes with an effect from little substance.
